In PubChem BioAssay (NCI):
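Following 48 hours of exposure in 96-well plates, responses at five concentrations were used to interpolate endpoints linearly. At the GI50, growth is halved. At the TGI there is no net growth.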

How the values were obtained:
Assay in all cases: DTP human tumour cell line panel, 48 h
U251 CNS = test system: U251 CNS
786-0 renal = test system: 786-0 renal
NCI-H522 lung = test system: NCI-H522 lung
T-47D breast = test system: T-47D breast
SK-OV-3 ovarian = test system: SK-OV-3 ovarian
SK-MEL-5 melanoma = test system: SK-MEL-5 melanoma
HCT-116 colon = test system: HCT-116 colon
MALME-3M melanoma = test system: MALME-3M melanoma
UO-31 renal = test system: UO-31 renal
MDA-MB-435 = test system: MDA-MB-435
OVCAR-3 ovarian = test system: OVCAR-3 ovarian
OVCAR-4 ovarian = test system: OVCAR-4 ovarian
CAKI-1 renal = test system: CAKI-1 renal
SNB-19 CNS = test system: SNB-19 CNS
HL-60(TB) leukemia = test system: HL-60(TB) leukemia
NCI-H226 lung = test system: NCI-H226 lung
LOX IMVI melanoma = test system: LOX IMVI melanoma
HCT-15 colon = test system: HCT-15 colon
HOP-62 NSCLC = test system: HOP-62 NSCLC
SK-MEL-2 melanoma = test system: SK-MEL-2 melanoma
HT29 colon = test system: HT29 colon
SF-268 CNS = test system: SF-268 CNS
HCC-2998 colon = test system: HCC-2998 colon
EKVX NSCLC = test system: EKVX NSCLC
SR leukemia = test system: SR leukemia
MOLT-4 leukemia = test system: MOLT-4 leukemia
SF-295 CNS = test system: SF-295 CNS
UACC-62 melanoma = test system: UACC-62 melanoma

Which GI50 (U251 CNS) does the source give for `COc1ccc(NC(=O)Cn2c(/C=C/c3ccc(N(C)C)cc3)nc3ccccc3c2=O)cc1` here?
The GI50 was 3.72 µM.

What about the TGI (U251 CNS) of the same compound?
Its TGI is 18.5 µM.

And the GI50 (786-0 renal)?
Its GI50 is 2.03 µM.

What about the TGI (786-0 renal) of the same compound?
Its TGI is 4.62 µM.

What about the GI50 (NCI-H522 lung) of the same compound?
Its GI50 is 5.69 µM.

What about the TGI (NCI-H522 lung) of the same compound?
Its TGI is 29.4 µM.

What about the GI50 (T-47D breast) of the same compound?
Its GI50 is 4.27 µM.

And the TGI (T-47D breast)?
The TGI was > 100 µM.

What about the GI50 (SK-OV-3 ovarian) of the same compound?
The GI50 was 3.22 µM.

And the TGI (SK-OV-3 ovarian)?
Its TGI is 8.35 µM.

And the GI50 (SK-MEL-5 melanoma)?
Its GI50 is 2.96 µM.

And the TGI (SK-MEL-5 melanoma)?
The TGI was 10.4 µM.

What about the GI50 (HCT-116 colon) of the same compound?
Its GI50 is 3.05 µM.

What about the TGI (HCT-116 colon) of the same compound?
Its TGI is 11.2 µM.

What about the GI50 (MALME-3M melanoma) of the same compound?
Its GI50 is 3.95 µM.

And the TGI (MALME-3M melanoma)?
Its TGI is 24 µM.

What about the GI50 (UO-31 renal) of the same compound?
Its GI50 is 2.92 µM.

What about the TGI (UO-31 renal) of the same compound?
The TGI was 31.3 µM.

What about the GI50 (MDA-MB-435) of the same compound?
Its GI50 is 7.19 µM.

And the TGI (MDA-MB-435)?
The TGI was > 100 µM.

And the GI50 (OVCAR-3 ovarian)?
The GI50 was > 100 µM.

And the TGI (OVCAR-3 ovarian)?
The TGI was > 100 µM.

What about the GI50 (OVCAR-4 ovarian) of the same compound?
The GI50 was 28.9 µM.

What about the TGI (OVCAR-4 ovarian) of the same compound?
Its TGI is > 100 µM.

And the GI50 (CAKI-1 renal)?
Its GI50 is 4.12 µM.

What about the TGI (CAKI-1 renal) of the same compound?
The TGI was 20.7 µM.

What about the GI50 (SNB-19 CNS) of the same compound?
The GI50 was 13.1 µM.

And the TGI (SNB-19 CNS)?
Its TGI is 40.3 µM.

What about the GI50 (HL-60(TB) leukemia) of the same compound?
Its GI50 is > 100 µM.

What about the TGI (HL-60(TB) leukemia) of the same compound?
The TGI was > 100 µM.

And the GI50 (NCI-H226 lung)?
Its GI50 is 2.31 µM.

What about the TGI (NCI-H226 lung) of the same compound?
The TGI was 6.24 µM.

And the GI50 (LOX IMVI melanoma)?
Its GI50 is 4.48 µM.

And the TGI (LOX IMVI melanoma)?
Its TGI is > 100 µM.

And the GI50 (HCT-15 colon)?
Its GI50 is 13.6 µM.

And the TGI (HCT-15 colon)?
The TGI was > 100 µM.

What about the GI50 (HOP-62 NSCLC) of the same compound?
The GI50 was 5 µM.

And the TGI (HOP-62 NSCLC)?
Its TGI is 20.6 µM.

What about the GI50 (SK-MEL-2 melanoma) of the same compound?
Its GI50 is 16.1 µM.

What about the TGI (SK-MEL-2 melanoma) of the same compound?
The TGI was 47.9 µM.

What about the GI50 (HT29 colon) of the same compound?
Its GI50 is 6.32 µM.

What about the TGI (HT29 colon) of the same compound?
The TGI was > 100 µM.

What about the GI50 (SF-268 CNS) of the same compound?
The GI50 was 12.4 µM.

What about the TGI (SF-268 CNS) of the same compound?
Its TGI is > 100 µM.

What about the GI50 (HCC-2998 colon) of the same compound?
Its GI50 is 6.21 µM.

And the TGI (HCC-2998 colon)?
The TGI was > 100 µM.

And the GI50 (EKVX NSCLC)?
The GI50 was 40.3 µM.

And the TGI (EKVX NSCLC)?
Its TGI is > 100 µM.

And the GI50 (SR leukemia)?
Its GI50 is > 100 µM.

What about the TGI (SR leukemia) of the same compound?
Its TGI is > 100 µM.

And the GI50 (MOLT-4 leukemia)?
Its GI50 is > 100 µM.

What about the TGI (MOLT-4 leukemia) of the same compound?
Its TGI is > 100 µM.

And the GI50 (SF-295 CNS)?
Its GI50 is 3 µM.

And the TGI (SF-295 CNS)?
Its TGI is 11.9 µM.

What about the GI50 (UACC-62 melanoma) of the same compound?
Its GI50 is 2.96 µM.

And the TGI (UACC-62 melanoma)?
Its TGI is 13.1 µM.
